Test results reported in patent US4942226A, “Halogenated pyrimidine nucleosides and their derivatives” (Merck & Co., Inc., priority 1988, dated 1990).
Structures can show the parent of a compound that is named as a salt. Where two headings read alike, the source gives them in different places.

Test: Determination of Ester Half-lives (conversion of ester to alcohol in phosphate buffer at 37°, HPLC)
Format: physicochemical
Conditions: read-out: t1/2 (time required for 50% conversion of ester to alcohol)
Protocol: Determination of Ester Half-lives
Two mL of phosphate buffer preheated to 37° were added to approximately 0.5 mg of the ester dihydrochloride. The resulting solution was heated at 37° while 20 μL samples were removed at intervals and injected directly into the HPLC injection port.
Unreacted ester and 5-halo-2'-deoxyuridine concentrations were determined by HPLC analysis on a C-18 reverse phase column using a gradient of 98% pH 2.4 phosphoric acid--2% acetonitrile to 70% pH 2.4 phosphoric acid--30% acetonitrile over 10 minutes. The UV detector was set at 280 nm. The half-life (t1/2) is the time required for 50% conversion of ester to alcohol.

CCNCCNCC(=O)O[C@H]1C[C@H](n2cc(Br)c(=O)[nH]c2=O)O[C@@H]1CO [Example 1, 5-Bromo-2'-deoxyuridine 3'-N-(2-Ethylaminoethyl)-glycyl Ester Dihydrochloride]
half-life (pH 6.8, 37°): 32 min
half-life (pH 7.4, 37°): 26 min

O=C(CNCCNCCC1CCCCC1)O[C@H]1C[C@H](n2cc(Br)c(=O)[nH]c2=O)O[C@@H]1CO [Example 2, 5-Bromo-2'-deoxyuridine 3'-[N-(2-(2-Cyclohexylethylamino)ethyl)glycyl]esterDihydrochloride]
half-life (pH 6.8, 37°): 47 min
half-life (pH 7.4, 37°): 29 min

O=C(CNCCNCCC1CCCCC1)OC[C@H]1O[C@@H](n2cc(Br)c(=O)[nH]c2=O)C[C@@H]1O [Example 3, 5-Bromo-2'-deoxyuridine 5'-N-(2-(2-cyclohexylethylamino)ethyl]glycyl Ester Dihydrochloride]
half-life (pH 6.8, 37°): 35 min
half-life (pH 7.4, 37°): 22 min
